Patent US9096615B2, “Bridged bicyclic amino thiazine dioxide compounds as inhibitors of beta-secretase and methods of use thereof” (AMGEN INC., priority 2013, dated 2015)

Key:
[1] = tested on: Aβ40 in conditioned medium of cells stably expressing Amyloid Precursor Protein (APP); assay: In vitro BACE cell-based assay (HEK cell assay, Aβ40 sandwich ELISA); settings: Homo sapiens, HEK293; average IC50; read-out: BACE1 cell assay IC50
How it was run: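 APP-stable cells were cultured 24 h at 37 °C, then given compound as 10-point dose-response (top 100 μM or 10 μM; 0.1% DMSO final) for 24 h. Aβ40 in conditioned medium was measured by sandwich ELISA (pAb40 capture, biotinylated 6E10 detection, Eu time-resolved fluorescence). IC50 from percent inhibition versus concentration.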

BACE1 = BACE1 (Homo sapiens, UniProt P56817); assay: In vitro enzymatic BACE FRET assay; format: biochemical; settings: average IC50; read-out: BACE1 Enzyme assay IC50
How it was run: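 BACE (0.2 nM) pre-incubated 1 h with serially diluted inhibitor in 0.05 M acetate pH 4.2, 10% DMSO, 100 uM genapol; 50 nM FRET peptide substrate added, 1 h incubation. Stopped with Tris to neutral pH; fluorescence read (ex 488, […]).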

Cathepsin D (Cat D) = target: T1, Cathepsin D (Cat D) (Homo sapiens, UniProt P07339); assay: In vitro enzymatic Cathepsin D (Cat D) FRET assay; format: biochemical; settings: average IC50; first procedure; read-out: CatD IC50
T1 construct: made in house; host or cells: CHO cells
How it was run: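 Recombinant human Cat D expressed in CHO cells, 9 nM, pre-incubated 1 h with inhibitor in 0.05 M citrate pH 3.5, 10% DMSO, 5 mM CHAPS. Reaction started with 20 nM FRET peptide substrate, run 1 h, stopped with Tris to neutral pH; fluorescence read at ex 500/em 580 nm.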

human Bace2 protein = target: T2, human Bace2 protein (Homo sapiens, UniProt Q9Y5Z0); assay: In vitro enzymatic BACE2 FRET assay; format: biochemical; settings: average IC50; read-out: BACE2 Enzyme assay IC50
T2 construct: V5 (C); 6-His (C)
T2 sequence (Q9Y5Z0 63-518): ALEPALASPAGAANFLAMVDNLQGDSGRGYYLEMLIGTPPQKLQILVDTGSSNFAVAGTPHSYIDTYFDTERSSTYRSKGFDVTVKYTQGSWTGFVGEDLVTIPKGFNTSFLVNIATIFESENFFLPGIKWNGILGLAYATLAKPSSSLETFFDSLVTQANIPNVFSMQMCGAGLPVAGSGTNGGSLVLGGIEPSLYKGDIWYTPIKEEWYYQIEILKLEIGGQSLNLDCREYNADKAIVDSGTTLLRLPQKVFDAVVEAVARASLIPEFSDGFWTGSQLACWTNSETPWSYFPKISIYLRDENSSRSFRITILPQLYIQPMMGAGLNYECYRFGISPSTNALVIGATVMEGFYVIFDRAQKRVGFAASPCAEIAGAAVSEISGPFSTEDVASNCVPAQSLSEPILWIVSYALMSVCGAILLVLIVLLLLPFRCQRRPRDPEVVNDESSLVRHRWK
Method: In Vitro Enzymatic BACE2 FRET (Fluorescence Resonance Energy Transfer) Assay
Enzyme Assay Data in the Table 3
The assay buffer used in this screen is 0.05 M acetate, pH 4.2, 10% DMSO final, 100 uM genapol (which is a nonionic detergent, below its Critical Micelle Concentration). The Beta Secretase2 enzyme (human Bace2 protein with C-terminal V5 and 6-His tag; 0.2 nM) is pre-incubated for one hour with inhibitors, typically in about 1 uL of DMSO according to a serial dilution, are added thereto. This assay is effectively started by the addition of FRET substrate (50 nM) and the combination is incubated for one hour. Final assay concentration of about 0.64 nM. The FRET assay is terminated with by addition of Tris buffer, which raises the pH to neutrality, and the fluorescence is determined. The FRET substrate is a peptide with commercially available fluorophore and quencher, on opposite sides of the BACE cleavage site. Proteolytic cleavage of the FRET substrate releases quenching of fluorescence (excitation 488 nm and […]).

Aβ in lumbar CSF = settings: cited from earlier work
rat = settings: higher compound dose given for three months; cited from earlier work

Sequence of BACE1 (P56817 46-501, species assumed): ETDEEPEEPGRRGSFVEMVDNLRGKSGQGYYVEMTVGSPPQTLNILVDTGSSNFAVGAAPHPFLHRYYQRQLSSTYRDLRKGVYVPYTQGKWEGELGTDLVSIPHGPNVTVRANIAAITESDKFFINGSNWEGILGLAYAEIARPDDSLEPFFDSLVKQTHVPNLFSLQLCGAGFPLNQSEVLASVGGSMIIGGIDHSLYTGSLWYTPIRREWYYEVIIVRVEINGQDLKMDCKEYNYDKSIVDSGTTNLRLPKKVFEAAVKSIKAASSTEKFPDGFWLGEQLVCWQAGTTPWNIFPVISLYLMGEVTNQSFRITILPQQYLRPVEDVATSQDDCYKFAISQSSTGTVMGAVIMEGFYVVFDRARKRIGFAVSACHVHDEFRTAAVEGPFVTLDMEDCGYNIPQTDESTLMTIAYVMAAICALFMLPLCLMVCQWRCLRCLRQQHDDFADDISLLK
T1 sequence (P07339 65-412, species assumed): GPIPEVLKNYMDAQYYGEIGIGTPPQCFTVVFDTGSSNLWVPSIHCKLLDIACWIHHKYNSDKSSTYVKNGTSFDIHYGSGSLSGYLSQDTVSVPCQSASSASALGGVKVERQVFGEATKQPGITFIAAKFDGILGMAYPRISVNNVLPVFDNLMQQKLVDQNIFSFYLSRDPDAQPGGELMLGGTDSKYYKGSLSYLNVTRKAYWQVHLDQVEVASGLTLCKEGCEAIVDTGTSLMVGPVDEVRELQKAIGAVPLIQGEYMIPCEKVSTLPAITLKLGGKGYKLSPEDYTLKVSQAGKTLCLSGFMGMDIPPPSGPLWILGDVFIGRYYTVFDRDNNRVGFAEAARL

Structure (SMILES)	IC50 [1]	IC50 (BACE1)	IC50 (Cathepsin D (Cat D))	IC50 (human Bace2 protein)	Aβ reductions in lumbar CSF (Aβ in lumbar CSF; after oral dosing of 30 or 90 mg)	safety and tolerability (Aβ in lumbar CSF; healthy volunteers)	rat toxicology finding in the eye (rat)
COCCOc1cnc2c(Nc3ccc(F)c([C@@]4(C)N=C(N)[C@@]5(C)CC[C@@H]4S5(=O)=O)c3)nccc2n1 [Example 145, N-(3-((1S,2R,5R)-4-amino-2,5-dimethyl-8,8-dioxido-8-thia-3-azabicyclo[3.2.1]oct-3-en-2-yl)-4-fluorophenyl)-2-(2-methoxyethoxy)pyrido[3,4-b]pyrazin-5-amine]	0.002 µM	0.003 µM	1980 µM	0.065 µM	–	–	–
C[C@@]1(c2cc(-c3cncnc3)c(F)cc2F)CCSC(N)=N1 [LY2811376, (S)-4-(2,4-difluoro-5-pyrimidin-5-yl-phenyl)-4-methyl-5,6-dihydro-4H-[1,3]thiazin-2-ylamine]	–	–	–	–	Prominent and long-lasting Aβ reductions	safe and well tolerated	damaged the pigment epithelium of the rat's eye
